What was measured:
GL261 glioma tumors = assay: Power Doppler sonography of tumor blood flow, GL261 hind limb tumors; type: in vivo, C57BL/6J mice
Source text: Power Doppler sonography was used to study the response of tumor blood vessels to ionizing radiation. This method utilizes amplitude to measure blood flow in microvasculature. Tumors were imaged with a 10-5 MHz ENTOS® linear probe (Advanced Technology Laboratories, Inc., Bothell, Wash., United States of America) attached to an HDI® 5000 diagnostic ultrasound system (Advanced Technology Laboratories, Inc.). Power Doppler sonography images were obtained with the power gain set to 82%. Care was taken to minimize motion artifact. A 20-frame cineloop sweep of the entire tumor was obtained with the probe perpendicular to the long axis of the lower extremity along the entire length of the tumor. The images were analyzed using HDI® software (Advanced Technology Laboratories, Inc). This software allows direct evaluation of Power Doppler cineloop raw data. Color area was recorded for the entire tumor. Five mice were included in each treatment group. Values for color area were averaged for each tumor set and treated groups were compared to controls using the unpaired student t-test. GL261 glioma tumors were implanted in the hind limb of C57BL/6J mice as described in […] et al., 1998. […] Power Doppler analysis of tumor blood flow was measured on day 0, day 3, and day 7 after radiation treatment. […]

[1] = test system: GL261 tumor blood vessels; assay: Tumor vascular window model, vascular length density, GL261; type: in vivo, mouse
Procedure: Penicillin/streptomycin solution (200 μl; available from GIBCO™ Invitrogen Corporation of Carlsbad, Calif., United States of America) was injected into the hind limb of the mouse prior to preparation of the window chamber. The dorsal skin fold window chamber (Leunig et al., 1992) was prepared using a 3-gram plastic frame, which was applied to the skin of a test animal and remained attached for the duration of the study. To prepare a test animal for application of the plastic frame, the dorsal midline was found along the animal's back, and a clip was placed to hold the skin in position. […] Scanned slides were analyzed using IMAGE-PRO® software (Media Cybernetics, Silver Spring, Md., United States of America) as described below. […] Tumor blood vessels were quantified using IMAGE-PRO® software, which quantified the vascular length density of blood vessel within the microscopic field. The mean vascular length density and the standard error of the mean were calculated for each treatment group. The mean and 95% confidence intervals of vascular length density for each treatment group were calculated and variance was analyzed by the General Linear Models and Bonferroni t test. […] The mean vascular length densities of treatment group were determined at 0 hours, which was the time at which the radiation treatments were commenced. […]

SMILES: O=c1cc(N2CCOCC2)oc2c(-c3ccccc3)cccc12 [LY294002, 2-(4-Morpholinyl)-8-phenyl-4H-1-benzopyran-4-one]
- tumor blood flow (GL261 glioma tumors; LY294002 alone): unchanged
- tumor blood flow (GL261 glioma tumors; LY294002 prior to 3 Gy irradiation): obliterated
- mean vascular length density at 96 hours, % of 0 hour ([1]; 3 mg/Kg intraperitoneally 15 minutes prior to 3 Gy): 5%
- mean vascular length density at 96 hours, % of 0 hour ([1]; 3 mg/Kg intraperitoneally, no radiation, p=0.41): 85%

— US20060084697A1, “Pi3k antagonists as radiosensitizers” (priority 2002, published 2006)
